Earlier results, collected in PMC12525602, “Identification of Selective α-Glucosidase Inhibitors via Virtual Screening with Machine Learning” (Molecules, 2025).
Like-named read-outs stand apart in the source and are kept apart here.

Tested on: α-glucosidase
Details: cited from earlier work; for activity (label in modeling dataset): 300-compound dataset of reported inhibitors and ineffective compounds, Table S4
[1] = activity label of the modeling dataset, Table S5
[2] = Table S5 modeling dataset, activity label 1 = active, 0 = inactive
[3] = activity label of the modeling dataset, Table S5 (1 = active, 0 = inactive)
[4] = activity label in the 300-compound modeling dataset (Table S5), 1 = active, 0 = inactive
[5] = activity label of the 300-compound modeling dataset, Table S5
[6] = activity label of the modeling dataset (Table S5), α-glucosidase, 1 = active, 0 = inactive
[7] = activity label of the modeling dataset, sheet Table S5, 1 = active, 0 = inactive

Structure (SMILES): O=C(CSc1nc2ccccc2cc1-c1nc2ccccc2[nH]1)Nc1cccc(Cl)c1 [compound 149]
- activity [1]: 1

Structure (SMILES): Fc1ccc(CSc2nnc(COc3cccc4cccnc34)o2)cc1 [compound 128]
- activity [2]: 0

Structure (SMILES): Fc1ccc(CSc2nnc(COc3cccc4cccnc34)o2)c(F)c1 [compound 108]
- activity [2]: 0

Structure (SMILES): Fc1cccc(CSc2nnc(COc3cccc4cccnc34)o2)c1 [compound 47]
- activity [3]: 0

Structure (SMILES): CC(C)(C)c1ccc(-c2csc(N/N=C/c3ccccc3OCc3cc4ccccc4oc3=O)n2)cc1 [compound 215]
- activity [4]: 1

Structure (SMILES): Fc1cccc(CNc2cccc(-c3nc4ccccc4[nH]3)c2)c1 [compound 260]
- activity [5]: 1

Structure (SMILES): COc1cccc(C(=O)C2C(O)c3ccccc3S(=O)(=O)N2CC(=O)Nc2ccccc2Cl)c1 (centres unmarked) [compound 168]
- activity [1]: 1

Structure (SMILES): CC1CCN(c2ccc(/C=N/Nc3nc(-c4ccc(C#N)cc4)cs3)cc2)CC1 [compound 22]
- activity [6]: 0

Structure (SMILES): COc1cccc(C(=O)C2C(O)c3ccccc3S(=O)(=O)N2CC(=O)Nc2cccc(Br)c2)c1 (centres unmarked) [compound 118]
- activity [2]: 0

Structure (SMILES): CCCSc1nnc(COc2cccc3cccnc23)o1 [compound 123]
- activity [2]: 0

Structure (SMILES): O=C(c1ccccc1)c1ccc2nc(-c3ccc(Br)cc3)[nH]c2c1 [compound 8]
- activity [6]: 0

Structure (SMILES): O=C(c1ccccc1)c1ccc2nc(-c3ccc(O)cc3)[nH]c2c1 [compound 135]
- activity [2]: 0

Structure (SMILES): COc1cc(/C=N/N=C2\C(=O)Nc3ccccc32)ccc1OCc1cn(Cc2ccc(C)cc2)nn1 [compound 253]
- activity [5]: 1

Structure (SMILES): COc1cc(/C=C(\Oc2ccc(/C=C/C(=O)O)cc2OC)C(=O)O)ccc1O [compound 157]
- activity [1]: 1

Structure (SMILES): Oc1c(Cl)cc(Cl)cc1-c1nnc(/N=C(/CSc2nnc3c(n2)[nH]c2ccccc23)c2ccc(-c3ccccc3)cc2)s1 [compound 221]
- activity [4]: 1

Structure (SMILES): N#Cc1c(-c2ccncc2)cc(-c2ccc(Cl)cc2)c(C#N)c1N [compound 113]
- activity [2]: 0

Structure (SMILES): O=[N+]([O-])c1ccc(-c2nnc(/N=C(/CSc3nnc4c(n3)[nH]c3ccccc34)c3ccc(-c4ccccc4)cc3)s2)cc1 [compound 230]
- activity [4]: 1

Structure (SMILES): COC(=O)Cn1c(=O)oc2c(C(=O)/C=C/c3ccc(O)c(F)c3)cccc21 [compound 284]
- activity [7]: 1

Structure (SMILES): COc1cc(O)c(CC=C(C)C)c(O)c1C(=O)/C=C/c1ccc(O)cc1 [compound 167]
- activity [1]: 1

Structure (SMILES): O=C(c1ccccc1)c1ccc2nc(-c3ccc(Cl)cc3Cl)[nH]c2c1 [compound 110]
- activity [2]: 0

Structure (SMILES): N#Cc1ccc2[nH]c(-c3nnc(Nc4cccc(F)c4)s3)cc2c1 [compound 124]
- activity [2]: 0

Structure (SMILES): O=C1CC(/C=N/Nc2cccc(Br)c2)Oc2ccccc21 (centres unmarked) [compound 233]
- activity [5]: 1

Structure (SMILES): COc1cc(/C=N/N=C2\C(=O)Nc3ccccc32)ccc1OCc1cn(Cc2ccccc2F)nn1 [compound 143]
- activity [1]: 0

Structure (SMILES): O=[N+]([O-])c1ccc(-c2cnc3ccccc3n2)cc1 [compound 286]
- activity [7]: 1

Structure (SMILES): O=[N+]([O-])c1ccccc1-c1nnc(/N=C(/CSc2nnc3c(n2)[nH]c2ccccc23)c2cccc([N+](=O)[O-])c2Br)s1 [compound 171]
- activity [1]: 1

Structure (SMILES): CC1CCN(c2ccc(/C=N/Nc3nc(-c4ccc(Br)cc4)cs3)cc2)CC1 [compound 15]
- activity [6]: 0

Structure (SMILES): Fc1ccc(CSc2nnc(COc3cccc4cccnc34)o2)cc1F [compound 80]
- activity [3]: 0

Structure (SMILES): C[n+]1cccc(C(=O)[O-])c1 [compound 133]
- activity [2]: 0

Structure (SMILES): O=C(CCc1ccc(O)cc1)c1c(O)cc(O)cc1O [compound 176]
- activity [1]: 1

Structure (SMILES): COc1cc(/C=C2\CC(=O)N(C(=O)CN3CCOCC3)C2=O)ccc1O [compound 137]
- activity [2]: 0

Structure (SMILES): CCSc1nnc(COc2cccc3cccnc23)o1 [compound 63]
- activity [3]: 0

Structure (SMILES): O=C(NNS(=O)(=O)c1ccc([N+](=O)[O-])cc1)c1cc2cc(F)ccc2[nH]1 [compound 109]
- activity [2]: 0

Structure (SMILES): O=c1c(O[C@@H]2O[C@@H](CO)[C@H](O)[C@H]2O)c(-c2ccc(O)c(O)c2)oc2cc(O)cc(O)c12 [compound 139]
- activity [1]: 0

Structure (SMILES): COc1ccc(Br)cc1-c1nnc(/N=C(/CSc2nnc3c(n2)[nH]c2ccccc23)c2ccc(C)cc2)s1 [compound 189]
- activity [4]: 1

Structure (SMILES): CC(C)=CCC1=C(O)[C@@](O)(CC=C(C)C)C(=O)C(C(=O)CC(C)C)=C1O [compound 138]
- activity [1]: 0

Structure (SMILES): Oc1cc(O)cc(-c2cc3cccc(Cl)c3o2)c1 [compound 212]
- activity [4]: 1

Structure (SMILES): COc1cccc(CNc2cccc(-c3nc4ccccc4[nH]3)c2)n1 [compound 270]
- activity [5]: 1

Structure (SMILES): Cc1cc(C)cc(Cn2cc(COc3ccc(-c4nc(-c5ccccc5)c(-c5ccccc5)[nH]4)cc3)nn2)c1 [compound 267]
- activity [5]: 1

Structure (SMILES): N#Cc1ccc2[nH]c(-c3nnc(Nc4cccc([N+](=O)[O-])c4)s3)cc2c1 [compound 154]
- activity [1]: 1

Structure (SMILES): Brc1ccc(Cn2cc(CSc3nnc(COc4cccc5cccnc45)o3)nn2)cc1 [compound 33]
- activity [6]: 0

Structure (SMILES): Clc1ccc(-c2cnc3ccccc3n2)cc1Cl [compound 295]
- activity [7]: 1

Structure (SMILES): Cc1ccc(-c2cc(-c3ccc([N+](=O)[O-])cc3)c(C#N)c(N)c2C#N)cc1 [compound 26]
- activity [6]: 0

Structure (SMILES): Oc1cccc(-c2cc3cccc(Cl)c3o2)c1 [compound 203]
- activity [4]: 1

Structure (SMILES): COc1ccc(Br)cc1-c1nnc(/N=C(/CSc2nnc3c(n2)[nH]c2ccccc23)c2ccc(-c3ccccc3)cc2)s1 [compound 165]
- activity [1]: 1

Structure (SMILES): CCCCCCCC/C=C\CCCCCCCCCC(=O)O [compound 98]
- activity [2]: 0

Structure (SMILES): COc1cc(/C=N/N=C2\C(=O)Nc3ccccc32)ccc1OCc1cn(Cc2ccc(F)cc2)nn1 [compound 144]
- activity [1]: 0

Structure (SMILES): COc1ccc(S(=O)(=O)NNC(=O)c2cc3cc(F)ccc3[nH]2)cc1OC [compound 3, FC1=CC=C(NC(C(NNS(=O)(C2=CC(OC)=C(OC)C=C2)=O)=O)=C3)C3=C1]
- activity (label in modeling dataset): 0
- activity [6]: 0

Structure (SMILES): Cc1ccc(-c2cc(-c3cccc([N+](=O)[O-])c3)c(C#N)c(N)c2C#N)cc1 [compound 20]
- activity [6]: 0

Structure (SMILES): Fc1ccc(Cn2cc(CSc3nnc(COc4cccc5cccnc45)o3)nn2)cc1F [compound 29]
- activity [6]: 0

Structure (SMILES): O=C1C(=NNc2nncs2)c2ccccc2N1Cc1ccc(Cl)cc1 [compound 255]
- activity [5]: 1

Structure (SMILES): CC(C)(C)c1ccc(N/N=C/C2CC(=O)c3ccccc3O2)cc1 (centres unmarked) [compound 234]
- activity [5]: 1

Structure (SMILES): CC1CCCN(c2ccc(/C=N/Nc3nc(-c4ccc(C#N)cc4)cs3)cc2)C1 (centres unmarked) [compound 106]
- activity [2]: 0

Structure (SMILES): O=[N+]([O-])c1ccc(-n2cc(CSc3nnc(COc4cccc5cccnc45)o3)nn2)cc1 [compound 72]
- activity [3]: 0

Structure (SMILES): O=c1c(O)c(-c2ccc(O)cc2)oc2cc(O)cc(O)c12 [compound 244]
- activity [5]: 1

Structure (SMILES): Cc1ccc(-c2csc(N/N=C/c3ccc(N4CCCC(C)C4)cc3)n2)cc1 (centres unmarked) [compound 68]
- activity [3]: 0

Structure (SMILES): O=[N+]([O-])c1ccc(Cn2cc(CSc3nnc(COc4cccc5cccnc45)o3)nn2)cc1 [compound 56]
- activity [3]: 0

Structure (SMILES): N#Cc1c(-c2ccc(Cl)cc2)cc(-c2ccc(Cl)cc2)c(C#N)c1N [compound 131]
- activity [2]: 0

Structure (SMILES): CCCCCCn1cc(CSc2nnc(COc3cccc4cccnc34)o2)nn1 [compound 77]
- activity [3]: 0

Structure (SMILES): Cc1ccc(-c2cc(C(F)(F)F)nn2-c2ccc(S(=O)(=O)NC(=O)c3ccc(Br)cc3)cc2)cc1 [compound 208]
- activity [4]: 1

Structure (SMILES): CC1CCN(c2ccc(/C=N/Nc3nc(-c4ccc(Cl)cc4)cs3)cc2)CC1 [compound 83]
- activity [3]: 0

Structure (SMILES): CC1CCCN(c2ccc(/C=N/Nc3nc(-c4ccccc4)cs3)cc2)C1 (centres unmarked) [compound 119]
- activity [2]: 0

Structure (SMILES): Clc1ncccc1CNc1cccc(-c2nc3ccccc3[nH]2)c1 [compound 237]
- activity [5]: 1

Structure (SMILES): CC1CCN(c2ccc(/C=N/Nc3nc(-c4ccccc4)cs3)cc2)CC1 [compound 112]
- activity [2]: 0

Structure (SMILES): Brc1ccc(CSc2nnc(COc3cccc4cccnc34)o2)cc1 [compound 107]
- activity [2]: 0

Structure (SMILES): O=C(c1ccccc1)c1ccc2nc(-c3ccc(O)cc3O)[nH]c2c1 [compound 9]
- activity [6]: 0

Structure (SMILES): CC1CCCN(c2ccc(/C=N/Nc3nc(-c4ccc(F)cc4)cs3)cc2)C1 (centres unmarked) [compound 87]
- activity [3]: 0

Structure (SMILES): Cc1cccc(C)c1-n1cc(CSc2nnc(COc3cccc4cccnc34)o2)nn1 [compound 58]
- activity [3]: 0

Structure (SMILES): Clc1ccc(Cn2cc(CSc3nnc(COc4cccc5cccnc45)o3)nn2)c(Cl)c1 [compound 61]
- activity [3]: 0

Structure (SMILES): O=C(NNS(=O)(=O)c1ccc(F)cc1)c1cc2cc(F)ccc2[nH]1 [compound 207]
- activity [4]: 1

Structure (SMILES): Clc1ccc(-c2cnc3ccccc3n2)c(Cl)c1 [compound 283]
- activity [7]: 1

Structure (SMILES): O=C(CCc1ccc(O)cc1)c1c(O)cc(O[C@@H]2O[C@H](CO)[C@@H](O)[C@H](O)[C@H]2O)cc1O [compound 155]
- activity [1]: 1

Structure (SMILES): N#Cc1ccc2[nH]c(-c3nnc(Nc4ccccc4F)s3)cc2c1 [compound 184]
- activity [1]: 1

Structure (SMILES): COC(=O)/C=C/c1ccc(O)c(OC)c1 [compound 127]
- activity [2]: 0

Structure (SMILES): COc1ccc(/C(CSc2nnc3c(n2)[nH]c2ccccc23)=N\c2nnc(-c3cc(Br)ccc3OC)s2)cc1 [compound 173]
- activity [1]: 1

Structure (SMILES): CC1CCCN(c2ccc(/C=N/Nc3nc(-c4ccc(O)cc4)cs3)cc2)C1 (centres unmarked) [compound 140]
- activity [1]: 0

Structure (SMILES): Cc1ccc(Nc2nnc(-c3cc4cc(C#N)ccc4[nH]3)s2)cc1 [compound 4, CC(C=C1)=CC=C1NC(S2)=NN=C2C3=CC4=CC(C#N)=CC=C4N3]
- activity (label in modeling dataset): 0
- activity [6]: 0

Structure (SMILES): C[C@@H]1O[C@@H](Oc2c(-c3ccc(O)cc3)oc3cc(O)cc(O)c3c2=O)[C@H](O)[C@H](O)[C@H]1O [compound 117]
- activity [2]: 0

Structure (SMILES): CCCCCCCCCCCCCCCCCC(N)=O [compound 27]
- activity [6]: 0
